Data reported in patent publication US12570612B2, “Substituted nitrogen heterocyclic compound and anesthetic effect thereof” (priority 2019, dated 2026).

Key:
Sprague-Dawley rats [1] = assay: animal or person; type: in vivo; conditions: rats; for ED50: Rattus norvegicus, LORR, up and down method, tail vein, class symbols, read-out: ED50
Description: Evaluating indicator: The end point of anesthesia: the disappearance of forepaw righting reflex (lorr) was used as the end point of anesthesia; General anesthesia effect: the disappearance of forepaw righting reflex in rats lasting for 30 seconds is taken as the index of general anesthesia effect; Anesthesia recovery index: the recovery of rat forepaw righting reflex was used as the index of anesthesia recovery.

Sprague-Dawley rats [2] = type: in vivo; conditions: tail vein
Sprague-Dawley rats [3] = assay: Pharmacological effect and adverse reactions under the equivalent dose (2ED50), Group D compounds; type: in vivo; conditions: for Righting reflex duration / Sedation duration / Onset time: 2ED50, tail vein, rats, n=8; for Adverse reaction: Convulsions / Adverse reaction: Cough, broken-winded / Adverse reaction: Euphoria / Adverse reaction: Four limbs rigidity / Adverse reaction: Red urine / Adverse reaction: Slower breathing, Tetany convulsion / Adverse reaction: Systemic stiffness, Convulsions, Opisthotonus / Adverse reaction: Tongue stretching / Adverse reaction: Tremor: equivalent dose (2 × ED50), number of rats of n = 8
Description: Evaluation index: onset time: from the completion of drug injection to the disappearance of forepaw righting reflex in rats; Duration of anesthesia: the time from the disappearance of rat forepaw righting reflex to the recovery of rat forepaw righting reflex; Recovery time of anesthesia: the time from the […] to complete recovery;

SD rats = conditions: for After the infusion is stopped: Righting reflex recovery time / Recovery time after stopping infusion: after 1 hour continuous infusion at 2 times the MIR; for After the infusion is stopped: Righting reflex recovery time / Recovery time after stopping infusion / Sedation onset time: SD rats; for Sedation onset time: continuous tail vein infusion at 2 times the MIR
Procedure: Experimental Methods: Adult male SD rats with body weight ranging from 250 g to 350 g were selected for continuous infusion test.
Evaluation indexes: the time from the beginning of continuous infusion to the […] of sedation in rats; the time from the cessation of infusion to the restoration of the forepaw turning reflex after 1 hour of continuous infusion; the time from the cessation of infusion to the complete restoration of rats after 1 hour of continuous infusion.

[4] = continuous infusion 2 x MIR 1 hour, rats affected/rats

Compound | ED50 (Sprague-Dawley rats [1]) [mg/kg] | Approximate therapeutic index (Sprague-Dawley rats [1]) | Minimal lethal dose (Sprague-Dawley rats [2]) [mg/kg] | Righting reflex duration (Sprague-Dawley rats [3]) [min] | Sedation duration (Sprague-Dawley rats [3]) [min] | Onset time (Sprague-Dawley rats [3]; unit s) [s] | Adverse reaction: Convulsions (Sprague-Dawley rats [3]) | Adverse reaction: Cough, broken-winded (Sprague-Dawley rats [3]) | Adverse reaction: Euphoria (Sprague-Dawley rats [3]) | Adverse reaction: Four limbs rigidity (Sprague-Dawley rats [3]) | Adverse reaction: Red urine (Sprague-Dawley rats [3]) | Adverse reaction: Slower breathing, Tetany convulsion (Sprague-Dawley rats [3]) | Adverse reaction: Systemic stiffness, Convulsions, Opisthotonus (Sprague-Dawley rats [3]) | Adverse reaction: Tongue stretching (Sprague-Dawley rats [3]) | Adverse reaction: Tremor (Sprague-Dawley rats [3]) | After the infusion is stopped: Righting reflex recovery time (SD rats) [min] | Recovery time after stopping infusion (SD rats) [min] | Types and incidence of adverse reactions: Red urine (SD rats; [4]) | Sedation onset time (SD rats) [min] | Onset time (Sprague-Dawley rats [3]; unit min) [s] | further results
COC(OC)(OC)C(=O)c1c(F)cnn1[C@H](C)c1ccccc1 [Compound D29] | 0.04 to 0.5 | >4.1 | >3.6 | 1.24 ± 0.06 | 2.26 ± 0.59 | <30 | 0 | 0 | 0 | 3 | 8 | 0 | 0 | 0 | 4 | 12 to 20 | 20 to 25 | Red urine(6/6), Tongue | <5 | – | Types and incidence of adverse reactions: Tongue stretching (SD rats; [4]): stretching(4/6)
COC(OC)C(=O)c1cc(F)nn1[C@H](C)c1ccccc1 [Compound D25] | 0.5 to 1 | >10.2 | >8.4 | 1.52 ± 0.26 | 6.82 ± 0.27 | – | 0 | 0 | 0 | 1 | 8 | 0 | 0 | 0 | 2 | 16 to 24 | 30 to 40 | 6/6 | <5 | <60 | Types and incidence of adverse reactions: Hindlimb rigidity (SD rats; [4]): Hindlimb rigidity(1/6); Types and incidence of adverse reactions: Tremor (SD rats; [4]): 2/6
CCOC(=O)C(=O)c1cncn1[C@H](C)c1ccccc1 [Compound D81] | 0.5 to 1 | >15.2 | >12.6 | 1.35 ± 0.12 | 4.87 ± 0.39 | – | 0 | 0 | 0 | 1 | 8 | 0 | 0 | 0 | 1 | 13 to 14 | 15 to 25 | 6/6 | <5 | <60 | Types and incidence of adverse reactions: Tremor (SD rats; [4]): 2/6; Types and incidence of adverse reactions: the four limbs rigidity (SD rats; [4]): the four limbs rigidity(2/6)
CCOC(OCC)C(=O)c1cncn1[C@H](C)c1ccccc1 [Compound D88] | 1 to 2 | >10.3 | >2.6 | 1.86 ± 1.02 | 7.08 ± 1.06 | <30 | 0 | 0 | 0 | 1 | 8 | 0 | 7 | 1 | 1 | – | – | – | – | – | –
